Measurements published in patent US11247987B2, “Inhibiting ubiquitin specific peptidase 30” (FORMA Therapeutics, Inc., priority 2017, dated 2022).

These molecules were tested against T1, human recombinant USP30 (Homo sapiens, UniProt Q70CQ3) (assay: Ubiquitin-Rhodamine 110 Assay for USP30 Activity (USP30 Inhibitor Biochemical Assay)). Details: 0.2 nM USP30, 25 nM Ub-Rh110, 30 min preincubation, 30 min at room temperature; read-out: USP30 potency range (USP30 biochemical IC50 assay, IC50 ranges).
T1 construct: purchased Boston Biochem E-582
T1 sequence (Q70CQ3 1-517): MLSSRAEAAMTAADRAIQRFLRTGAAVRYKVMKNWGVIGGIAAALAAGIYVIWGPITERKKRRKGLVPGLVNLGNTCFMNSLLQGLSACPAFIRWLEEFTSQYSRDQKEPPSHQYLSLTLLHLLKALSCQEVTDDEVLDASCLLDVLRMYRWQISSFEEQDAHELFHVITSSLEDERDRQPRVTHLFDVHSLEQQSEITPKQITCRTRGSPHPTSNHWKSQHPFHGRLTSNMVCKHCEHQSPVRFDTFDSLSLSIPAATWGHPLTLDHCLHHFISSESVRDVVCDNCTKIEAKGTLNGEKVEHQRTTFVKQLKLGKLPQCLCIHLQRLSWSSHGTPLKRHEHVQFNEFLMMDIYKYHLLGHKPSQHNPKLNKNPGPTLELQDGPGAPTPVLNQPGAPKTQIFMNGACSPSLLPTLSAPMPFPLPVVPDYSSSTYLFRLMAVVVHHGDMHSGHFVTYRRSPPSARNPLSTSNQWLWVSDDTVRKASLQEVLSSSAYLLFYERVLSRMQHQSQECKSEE
Experimental: Example A: Biochemical Assay: Ubiquitin-Rhodamine 110 Assay for USP30 Activity (USP30 Inhibitor Biochemical Assay)
The assay was performed in a final volume of 9 μL in assay buffer containing 20 mM Tris-HCl (pH 8.0, (1M Tris-HCl, pH 8.0 solution; Corning 46-031-CM)), 1 mM GSH (L-glutathione reduced, Sigma-Aldrich, G4251-100G), 0.03% BGG (0.22 μM filtered, Sigma, G7516-25G), and 0.01% Triton X-100 (Sigma, T9284-10L). Nanoliter quantities of 10-point, 3-fold serial dilution in DMSO were pre-dispensed into 1536 assay plates (Corning, #3724BC) for a final test concentration of 25 μM to 1.3 nM, top to lowest dose, respectively. Concentration and incubation times were optimized for the maximal signal-to-background while maintaining initial velocity conditions at a fixed substrate concentration. The final concentration of USP30 (human recombinant USP30, Boston Biochem, cat. # E-582) in the assay was 0.2 nM. […] 3 μL of 2×USP30 was added to assay plates (pre-stamped with compound), preincubated for 30 minutes and then treated with 3 μL of 2×Ub-Rh110. Plates were incubated for 30 minutes at room temperature before addition of 3 μL of stop solution (final concentration of 10 mM citric acid (Sigma, 251275-500G)). Fluorescence was read on the Envision (excitation at 485 nm and emission at 535 nm; Perkin Elmer) or on the PheraSTAR (excitation at 485 nm and emission at 535 nm; BMG Labtech).
For all assay formats data were reported as percent inhibition compared with control wells based on the following equation: % inh=1−((FLU−AveLow)/(AveHigh−AveLow)) where FLU=measured Fluorescence, AveLow=average Fluorescence of no enzyme control (n=16), and AveHigh=average Fluorescence of DMSO control (n=16). IC50 values were determined by curve fitting of the standard 4 parameter logistic fitting algorithm included in the Activity Base software package: IDBS XE Designer Model205. Data is fitted using the Levenburg Marquardt algorithm.

First: N#CN[C@H]1C[C@H](C(=O)Nc2ccc(F)c(N3CCCCC3)c2)C1 [Compound 1-63, (1r,3r)-3-(cyanoamino)-N-[4-fluoro-3-(piperidin-1-yl)phenyl]cyclobutane-1-carboxamide]
Second: N#CN[C@H]1C[C@@H](C(=O)Nc2ccc3c(c2)CCC3)C1 [Compound 5-9, cis-3-(cyanoamino)-N-(2,3-dihydro-1H-inden-5-yl)cyclobutane-1-carboxamide]
The IC50 of the first is lower: 0.1 to 1 µM for the first, 1 to 10 µM for the second. The first is the more potent here.

Compared with `N#CN[C@H]1C[C@H](C(=O)Nc2ncc(C3CCCCC3)s2)C1` [Compound 5-7, trans-3-(cyanoamino)-N-(5-cyclohexyl-1,3-thiazol-2-yl)cyclobutane-1-carboxamide], `N#CN[C@H]1C[C@@H](C(=O)Nc2ncc(C3CCCCC3)s2)C1` [Compound 5-3, cis-3-(cyanoamino)-N-(5-cyclohexyl-1,3-thiazol-2-yl)cyclobutane-1-carboxamide] is higher in IC50: 0.1 to 1 µM for the first, 1 to 10 µM for the second.

First: N#CN[C@H]1C[C@@](F)(C(=O)Nc2nc(Cl)c(C3CCCCC3)s2)C1 [Compound 1-48, (1r,3r)-N-(4-chloro-5-cyclohexyl-1,3-thiazol-2-yl)-3-(cyanoamino)-1-fluorocyclobutane-1-carboxamide]
Second: N#CN[C@H]1C[C@](F)(C(=O)Nc2nc3cccc(OC4CCC4)c3s2)C1 [Compound 1-66, (1s,3s)-3-(cyanoamino)-N-(7-cyclobutoxy-1,3-benzothiazol-2-yl)-1-fluorocyclobutane-1-carboxamide]
The IC50 of the first is lower: < 0.1 µM for the first, 0.1 to 1 µM for the second.

`CN(c1cc(-c2cccc(Cl)c2)no1)C(=O)[C@H]1C[C@H](NC#N)C1` [Compound 1-45, (1r,3r)-N-[3-(3-chlorophenyl)-1,2-oxazol-5-yl]-3-(cyanoamino)-N-methylcyclobutane-1-carboxamide] and `N#CN[C@H]1C[C@H](C(=O)Nc2cc(-c3cccc(Cl)c3)on2)C1` [Compound 1-43, (1r,3r)-N-[5-(3-chlorophenyl)-1,2-oxazol-3-yl]-3-(cyanoamino)cyclo-butane-1-carboxamide] fall in the same range of IC50: 0.1 to 1 µM for the first, 0.1 to 1 µM for the second.

First: N#CN[C@H]1C[C@H](C(=O)Nc2cccc(C(F)(F)F)c2)C1 [Compound 1-73, (1r,3r)-3-(cyanoamino)-N-[3-(trifluoro-methyl)phenyl] cyclobutane-1-carboxamide]
Second: N#CN[C@H]1C[C@H](C(=O)Nc2ccc3c(c2)CCC3)C1 [Compound 5-12, trans-3-(cyanoamio)-N-(2,3-dihydro-1H-inden-5-yl)cyclobutane-1-carboxamide]
The IC50 of the first is lower: 0.1 to 1 µM for the first, 1 to 10 µM for the second.

`N#CN[C@H]1C[C@H](C(=O)Nc2cc(Cl)n(C3CCCCC3)n2)C1` [Compound 1-39, (1r,3r)-N-(5-chloro-1-cyclohexyl-1H-pyrazo1-3-yl)-3-(cyanoamino)cyclo-butane-1-carboxamide] and `Cn1nc(NC(=O)[C@H]2C[C@H](NC#N)C2)cc1C1CCCCC1` [Compound 1-30, (1r,3r)-3-(cyanoamino)-N-(5-cyclohexyl-1-methyl-1H-pyrazol-3-yl)cyclobutane-1-carboxamide] fall in the same range of IC50: 0.1 to 1 µM for the first, 0.1 to 1 µM for the second.

`N#CNC1CN(C(=O)Nc2ncc(C3CCCCC3)s2)C1` [Compound 2-1, 3-(cyanoamino)-N-(5-cyclohexyl-1,3-thiazol-2-yl)azetidine-1-carboxamide] and `N#CN[C@H]1CC[C@H](C(=O)Nc2ncc(C3CCCCC3)s2)CC1` [Compound 10-2, trans-4-(cyanoamino)-N-(5-cyclohexyl-1,3-thiazol-2-yl)cyclohexane-1-carboxamide] fall in the same range of IC50: 1 to 10 µM for the first, 1 to 10 µM for the second.

First: CC(C)(C)c1cnc(NC(=O)[C@H]2CC[C@@H](NC#N)C2)s1 [Compound 12-7, (1S,3R)-N-(5-tert-butyl-1,3-thiazol-2-yl)-3-(cyanoamino)cyclopentane-1-carboxamide]
Second: CC(C)(C)c1sc(NC(=O)[C@H]2C[C@H](NC#N)C2)nc1Cl [Compound 1-19, (1r,3r)-N-(5-tert-butyl-4-chloro-1,3-thiazol-2-yl)-3-(cyanoamino)cyclo-butane-1-carboxamide]
The IC50 of the first is higher: 1 to 10 µM for the first, < 0.1 µM for the second. The second is the more potent here.

Compared with `N#CNC1CCN(C(=O)c2csc(-c3ccc(Cl)cc3Cl)n2)CC1` [Compound 12-9, ({1-[2-(2,4-dichlorophenyl)-1,3-thiazole-4-carbonyl]piperidin-4-yl}amino)carbonitrile], `N#CN[C@H]1C[C@H](C(=O)Nc2nc(-c3ccc(Cl)cc3)cs2)C1` [Compound 1-68, (1r,3r)-N-[4-(4-chlorophenyl)-1,3-thiazol-2-yl]-3-(cyanoamino)cyclo-butane-1-carboxamide] is lower in IC50: 1 to 10 µM for the first, 0.1 to 1 µM for the second.

First: Cc1cc(NC(=O)[C@H]2C[C@H](NC#N)C2)cc(-c2ccccc2F)c1 [Compound 1-61, (1r,3r)-3-(cyanoamino)-N-[3-(2-fluorophenyl)-5-methylphenyl]cyclo-butane-1-carboxamide]
Second: N#CN[C@H]1C[C@H](C(=O)Nc2ccn(-c3ccccc3)n2)C1 [Compound 5-6, trans-3-(cyanoamino)-N-(1-phenyl-1H-pyrazol-3-y1)cyclobutane-1-carboxamide]
The IC50 of the first is lower: 0.1 to 1 µM for the first, 1 to 10 µM for the second.

First: N#CN[C@H]1C[C@H](C(=O)Nc2cnc(C3CCCCC3)s2)C1 [Compound 1-3, (1r,3r)-3-(cyanoamino)-N-(2-cyclohexyl-1,3-thiazol-5-yl)cyclobutane-1-carboxamide]
Second: CC1(C)[C@H](NC#N)C[C@H]1C(=O)Nc1cnc(C2CCCCC2)s1 [Compound 1-15, (1R,3R)-3-(cyanoamino)-N-(2-cyclohexyl-1,3-thiazol-5-yl)-2,2-dimethylcyclobutane-1-carboxamide]
The IC50 of the first is lower: < 0.1 µM for the first, 0.1 to 1 µM for the second.

`N#CNC1CC2(CCN2C(=O)c2cnc(-c3ccccc3)s2)C1` (stereo not drawn) [Compound 3-2, {[1-(2-phenyl-1,3-thiazole-5-carbonyl)-l-azaspiro[3.3]heptan-6-yl]amino} carbonitrile] and `Cn1cc(-c2ccc(-c3cc(C(=O)N4CCC[C@]45C[C@H](NC#N)C5)on3)cc2)cn1` [Compound 3-4, {[(2r,4s)-5-{3-[4-(1-methyl-1H-pyrazol-4-yl)phenyl]-1,2-oxazole-5-carbonyl}-5-azaspiro[3.4]octan-2-yl]amino} carbonitrile] fall in the same range of IC50: 0.1 to 1 µM for the first, 0.1 to 1 µM for the second.

First: N#CN[C@H]1CCC[C@@H]1C(=O)Nc1ncc(C2CCCCC2)s1 [Compound 10-9, (1S,2S)-2-(cyanoamino)-N-(5-cyclohexyl-1,3-thiazol-2-yl)cyclopentane-1-carboxamide]
Second: N#CN[C@H]1C[C@H](C(=O)Nc2ncc([C@@H]3CC4CCC3CC4)s2)C1 [Compound 1-37, (1r,3r)-N-{5-[(2R)-bicyclo[2.2.2]octan-2-yl]-1,3-thiazol-2-yl}-3-(cyanoamino)cyclo-butane-1-carboxamide]
The IC50 of the first is higher: 1 to 10 µM for the first, < 0.1 µM for the second. The second is the more potent here.

`CC(C)Oc1ccccc1-c1ncc(NC(=O)[C@H]2C[C@H](NC#N)C2)s1` [Compound 1-8, (1r,3r)-3-(cyanoamino)-N-{2-[2-(propan-2-yloxy)phenyl]-1,3-thiazol-5-yl}cyclobutane-1-carboxamide] and `N#CN[C@H]1C[C@H](C(=O)Nc2nc3cccc(OC4CCC4)c3s2)C1` [Compound 1-64, (1r,3r)-3-(cyanoamino)-N-(7-cyclobutoxy-1,3-benzothiazol-2-yl)cyclobutane-1-carboxamide] fall in the same range of IC50: 0.1 to 1 µM for the first, 0.1 to 1 µM for the second.

`CC(C)(C)c1sc(NC(=O)[C@]2(Cl)C[C@H](NC#N)C2)nc1Cl` (single isomer, unassigned) [Compound 9-2, (1r,3r)-N-(5-tert-butyl-4-chloro-1,3-thiazol-2-yl)-1-chloro-3-(cyanoamino)cyclobutane-1-carboxamide] and `N#CN[C@H]1C[C@H](C(=O)Nc2ncc([C@H]3CC4CCC3CC4)s2)C1` [Compound 1-38, (1r,3r)-N-{5-[(2S)-bicyclo[2.2.2]octan-2-yl]-1,3-thiazol-2-yl}-3-(cyanoamino)cyclo-butane-1-carboxamide] fall in the same range of IC50: 0.1 to 1 µM for the first, 0.1 to 1 µM for the second.

`N#CN[C@H]1C[C@@H](C(=O)N2CCN(c3ccccc3)CC2)C1` [Compound 5-11, {[cis-3-(4-phenylpiperazine-1-carbonyl)cyclobutyl]amino} carbonitrile] gave an IC50 of 10 to 25 µM.
